Assay results published in ChEMBL document CHEMBL4513146, “CO-ADD screening of Karazin Kharkiv National University (Ukraine) compounds”.

What was measured:
Klebsiella pneumoniae = test: microbe, parasite or virus in culture; conditions: ATCC 700603, 18 h, ASSAY_TEST Inhibition of Bacterial Growth, detection method Absorption (OD600), MEDIA CAMHB, plate type 384well, NBS, CORNING #3640
Description: Antibacterial activity against Klebsiella pneumoniae MDR ATCC 70063 (CO-ADD:GN_003); MIC in CAMBH media using NBS plates, by OD(600)

Candida albicans = test: microbe, parasite or virus in culture; conditions: ATCC 90028, ASSAY_TEST Inhibition of Fungal Growth, detection method Absorption (OD530)
Description: Antifungal activity against Candida albicans ATCC 90028 (CO-ADD:FG_001); MIC in YNB media using NBS plates, by OD630

Acinetobacter baumannii = test: microbe, parasite or virus in culture; conditions: ATCC 19606, 18 h, ASSAY_TEST Inhibition of Bacterial Growth, detection method Absorption (OD600), MEDIA CAMHB, plate type 384well, NBS, CORNING #3640
Description: Antibacterial activity against Acinetobacter baumannii ATCC 19606 (CO-ADD:GN_034); MIC in CAMBH media using NBS plates, by OD600

Staphylococcus aureus = test: microbe, parasite or virus in culture; conditions: ATCC 43300, 18 h, ASSAY_TEST Inhibition of Bacterial Growth, detection method Absorption (OD600), MEDIA CAMHB, plate type 384well, NBS, CORNING #3640
Description: Antibacterial activity against Staphylococcus aureus MRSA ATCC 43300 (CO-ADD:GP_020); MIC in CAMBH media, using NBS plates, by OD(600)

HEK293 = test: cells; assay type: functional; conditions: Homo sapiens, ATCC CRL1573, HEK293; ASSAY_TEST Inhibition of Cell Viability; detection method Resazurin; Fluorescence (ex560/em590); MEDIA DMEM with 10% FBS; plate type 384well; TC; CORNING #3712; time 18 hr
Pseudomonas aeruginosa [1] = test: microbe, parasite or virus in culture; conditions: ATCC 27853, 18 h, ASSAY_TEST Inhibition of Bacterial Growth, detection method Absorption (OD600), MEDIA CAMHB, plate type 384well, NBS, CORNING #3640
Description: Antibacterial activity against Pseudomonas aeruginosa ATCC 27853 (CO-ADD:GN_042); MIC in CAMBH media using NBS plates, by OD(600)

Escherichia coli = test: microbe, parasite or virus in culture; conditions: ATCC 25922, 18 h, ASSAY_TEST Inhibition of Bacterial Growth, detection method Absorption (OD600), MEDIA CAMHB, plate type 384well, NBS, CORNING #3640
Description: Antibacterial activity against Escherichia coli ATCC 25922 (CO-ADD:GN_001); MIC in CAMBH media using NBS plates, by OD(600)

Pseudomonas aeruginosa [2] = test: Antibacterial activity against Pseudomonas aeruginosa PAO397 [PAO1 d(mexAB-oprM) d(mexCD-oprJ) d(mexEF-oprN) d(mexJKL) d(mexXY) d(opmH)] (CO-ADD:GN_211); MIC in CAMBH media using NBS plates, by OD(600); assay type: functional; conditions: ASSAY_TEST Inhibition of Bacterial Growth, detection method Absorption (OD600), MEDIA CAMHB, plate type 384well, CORNING #3640, time 18 hr

Description for Cryptococcus neoformans: Antifungal activity against Cryptococcus neoformans H99 ATCC 208821 (CO-ADD:FG_002); MIC in YNB media using NBS plates, by Resazurin OD(600-570)

Cc1cccc(NC(=O)Cn2nc3c(Sc4ccc(C)cc4C)nccn3c2=O)c1
> 32 µg/mL: MIC (Klebsiella pneumoniae) | MIC (Candida albicans) | MIC (Acinetobacter baumannii) | MIC (Staphylococcus aureus) | CC50 (HEK293) | MIC (Pseudomonas aeruginosa [1]) | MIC (Escherichia coli) | MIC (Cryptococcus neoformans)

Cc1ccc(CN(c2ccc(F)c(F)c2)S(=O)(=O)c2cccn3cnnc23)cc1
> 32 µg/mL: MIC (Klebsiella pneumoniae) | MIC (Candida albicans) | MIC (Acinetobacter baumannii) | MIC (Staphylococcus aureus) | CC50 (HEK293) | MIC (Pseudomonas aeruginosa [2]) | MIC (Pseudomonas aeruginosa [1]) | MIC (Escherichia coli) | MIC (Cryptococcus neoformans)
